These results are taken from patent US9452986B2, “6-heteroaryloxy- or 6-aryloxy-quinoline-2-carboxamides and method of use” (AbbVie Inc., priority 2014, dated 2016).

pIC50: −log10 of the molar value.

recombinant human Nav1.7, sequence (Q15858 whole entry): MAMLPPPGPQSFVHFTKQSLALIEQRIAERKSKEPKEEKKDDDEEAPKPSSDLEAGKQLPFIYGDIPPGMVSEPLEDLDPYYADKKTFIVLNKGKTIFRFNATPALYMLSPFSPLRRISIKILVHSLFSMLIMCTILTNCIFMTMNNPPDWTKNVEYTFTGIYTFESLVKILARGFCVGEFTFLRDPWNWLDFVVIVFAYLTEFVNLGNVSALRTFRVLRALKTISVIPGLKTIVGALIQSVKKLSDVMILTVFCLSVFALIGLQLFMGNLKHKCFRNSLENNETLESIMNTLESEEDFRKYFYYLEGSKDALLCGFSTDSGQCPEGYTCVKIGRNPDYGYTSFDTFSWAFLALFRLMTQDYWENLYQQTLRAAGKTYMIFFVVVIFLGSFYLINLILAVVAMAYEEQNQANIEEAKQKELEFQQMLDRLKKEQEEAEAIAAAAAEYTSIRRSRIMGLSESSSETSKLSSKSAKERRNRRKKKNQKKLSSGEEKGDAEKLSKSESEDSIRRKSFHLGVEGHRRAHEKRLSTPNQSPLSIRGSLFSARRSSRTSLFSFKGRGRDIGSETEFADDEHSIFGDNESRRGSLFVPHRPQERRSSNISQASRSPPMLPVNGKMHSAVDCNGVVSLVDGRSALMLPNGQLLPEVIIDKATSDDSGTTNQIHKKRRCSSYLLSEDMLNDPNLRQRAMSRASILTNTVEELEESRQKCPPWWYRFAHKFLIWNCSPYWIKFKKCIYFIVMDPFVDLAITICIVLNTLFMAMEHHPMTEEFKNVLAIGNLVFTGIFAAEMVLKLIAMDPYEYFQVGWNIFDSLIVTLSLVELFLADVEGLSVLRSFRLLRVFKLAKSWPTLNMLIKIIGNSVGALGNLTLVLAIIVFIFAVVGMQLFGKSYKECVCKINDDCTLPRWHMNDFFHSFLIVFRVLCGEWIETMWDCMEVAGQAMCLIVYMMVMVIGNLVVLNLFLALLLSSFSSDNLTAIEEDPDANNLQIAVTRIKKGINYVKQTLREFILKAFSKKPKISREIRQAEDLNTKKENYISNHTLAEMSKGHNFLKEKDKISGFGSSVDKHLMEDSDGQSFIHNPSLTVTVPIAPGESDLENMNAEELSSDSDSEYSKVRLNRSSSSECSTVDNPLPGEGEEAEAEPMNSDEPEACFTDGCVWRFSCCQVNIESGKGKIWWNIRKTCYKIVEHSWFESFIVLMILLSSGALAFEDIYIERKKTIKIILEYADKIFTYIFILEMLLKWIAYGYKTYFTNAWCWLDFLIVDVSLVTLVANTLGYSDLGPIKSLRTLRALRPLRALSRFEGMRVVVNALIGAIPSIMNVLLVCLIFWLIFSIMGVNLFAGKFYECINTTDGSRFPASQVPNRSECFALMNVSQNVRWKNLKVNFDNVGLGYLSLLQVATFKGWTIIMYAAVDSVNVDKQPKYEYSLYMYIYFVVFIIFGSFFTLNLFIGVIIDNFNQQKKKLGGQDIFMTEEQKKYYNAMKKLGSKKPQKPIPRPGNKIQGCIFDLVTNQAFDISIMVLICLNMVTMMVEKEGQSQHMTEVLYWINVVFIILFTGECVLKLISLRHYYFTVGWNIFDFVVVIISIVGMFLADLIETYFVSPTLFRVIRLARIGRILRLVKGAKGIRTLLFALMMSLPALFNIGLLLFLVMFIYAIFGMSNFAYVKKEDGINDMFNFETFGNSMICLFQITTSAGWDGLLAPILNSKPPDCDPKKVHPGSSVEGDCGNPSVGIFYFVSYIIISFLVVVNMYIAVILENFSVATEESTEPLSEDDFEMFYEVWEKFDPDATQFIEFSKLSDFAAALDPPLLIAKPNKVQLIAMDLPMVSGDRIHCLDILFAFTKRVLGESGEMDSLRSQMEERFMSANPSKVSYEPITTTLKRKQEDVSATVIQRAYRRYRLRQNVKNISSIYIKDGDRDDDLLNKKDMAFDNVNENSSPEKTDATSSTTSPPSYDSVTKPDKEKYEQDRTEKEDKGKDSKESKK

In one test the target is recombinant human Nav1.7 (Homo sapiens (Human), UniProt Q15858). In words: FRET-based membrane potential assay, recombinant human sodium channel Nav1.7. It is filed as cell-based. The settings on record: FRET-Membrane Potential Nav1.7 IC50. As to the method:
FRET-Based Membrane Potential Assays.
Recombinant, Human Sodium Channel, Nav1.7.
On the day of the assay, medium was removed by aspiration, and cells were washed with assay buffer [HBSS (Invitrogen, Carlsbad, Calif.) containing 20 mM HEPES (Invitrogen, Carlsbad, Calif.)]. […] Cells were incubated for 40 minutes at room temperature in the dark. […] The cells were incubated for 90 minutes at room temperature in the dark. Fluorescence readings were made using a FLIPR®^TETRA (Molecular Devices, Sunnyvale Calif.) equipped with voltage-sensor probe optics. At the start of each experiment the optimal (EC80) concentration of depolarizing agent (veratridine) was determined by testing a dilution curve of assay buffer containing veratridine (Sigma-Aldrich, St. Louis, Mo.) and 1 mg/mL scorpion venom (SVqq, from Leiurus quinquestriatus; Sigma-Aldrich, St. Louis, Mo.). […] Test compounds in the daughter plate were diluted to (˜3×) solutions in assay buffer immediately before assaying. Using the FLIPR®^TETRA, 20 μL of the (3×) compound solutions were first added to the cells, then 20 μL of depolarizing solution (3×EC80 veratridine+SVqq) were added 3 minutes later to activate the channel. […] IC50 values were calculated from curve fits of the ratio data using a four-parameter logistic Hill equation (Accelrys Assay Explorer 3.3 Client, Accelrys, San Diego, Calif.) with percent inhibition plotted against compound concentration.
`O=C(c1ccc2cc(Oc3ccc(C(F)(F)F)cn3)ccc2n1)N1CC[C@H](O)[C@H](F)C1` (relative stereo) [Example 191, [cis-3-fluoro-4-hydroxypiperidin-1-yl](6-{[5-(trifluoromethyl)pyridin-2-yl]oxy}quinolin-2-yl)methanone]: the pIC50 (in general, the IC50 on a negative log10 scale, so that one unit is a factor of ten) is < 4.70. As for `O=C(c1ccc2cc(Oc3ccc(C(F)(F)F)cn3)ccc2n1)N1CC[C@@H](O)[C@H](F)C1` (relative stereo) [Example 195, [trans-3-fluoro-4-hydroxypiperidin-1-yl](6-{[5-(trifluoromethyl)pyridin-2-yl]oxy}quinolin-2-yl)methanone], the pIC50 was 5.12.

The same test, now with this note: HEK293 cells stably expressing recombinant human Nav1.7; veratridine + scorpion venom depolarization; read-out: FRET-Membrane Potential Nav1.7 IC50.
Regarding “1,4-diazepan-1-yl(6-{[5-(trifluoromethyl)pyridin-2-yl]oxy}quinolin-2-yl)methanone [Example 219]”, the pIC50 was 5.59. Still for that read-out and setting: the same measure for `CC1[C@@H](O)[C@@H](O)C(C)N1C(=O)c1ccc2cc(Oc3ccc(C(F)(F)F)cn3)ccc2n1` (mixture of isomers) [Example 323, rac-[(3R,4S)-3,4-dihydroxy-2,5-dimethylpyrrolidin-1-yl](6-{[5-(trifluoromethyl)pyridin-2-yl]oxy}quinolin-2-yl)methanone]: < 4.70; for `O=C(c1ccc2cc(Oc3ccc(C(F)(F)F)cn3)ccc2n1)N1CC[C@H](F)[C@H](O)C1` (relative stereo) [Example 192, [cis-4-fluoro-3-hydroxypiperidin-1-yl](6-{[5-(trifluoromethyl)pyridin-2-yl]oxy}quinolin-2-yl)methanone]: 4.75. Still for that read-out and setting: the same measure for `O=C(c1ccc2cc(Oc3ccc(C(F)(F)F)cn3)ccc2n1)N1CC[C@@H](F)[C@H](O)C1` (relative stereo) [Example 196, [trans-4-fluoro-3-hydroxypiperidin-1-yl](6-{[5-(trifluoromethyl)pyridin-2-yl]oxy}quinolin-2-yl)methanone]: 5.31; for `O=C(c1ccc2cc(Oc3ccc(C(F)(F)F)cn3)ccc2n1)N1C[C@@H](O)[C@H](O)C1` (relative stereo) [Example 303, [trans-3,4-dihydroxypyrrolidin-1-yl](6-{[5-(trifluoromethyl)pyridin-2-yl]oxy}quinolin-2-yl)methanone]: 5.25. As for `CO[C@@H]1CN(C(=O)c2ccc3cc(Oc4ccc(C(F)(F)F)cn4)ccc3n2)C[C@H]1O` (relative stereo) [Example 305, [trans-3-hydroxy-4-methoxypyrrolidin-1-yl](6-{[5-(trifluoromethyl)pyridin-2-yl]oxy}quinolin-2-yl)methanone], the pIC50 was 4.87.

Turning to `C[C@@H]1CN(C(=O)c2ccc3cc(Oc4ccc(C(F)(F)F)cn4)ccc3n2)C[C@H]1O` (relative stereo) [Example 306, [trans-3-hydroxy-4-methylpyrrolidin-1-yl](6-{[5-(trifluoromethyl)pyridin-2-yl]oxy}quinolin-2-yl)methanone], the pIC50 is 4.83. Take `O=C(c1ccc2cc(Oc3ccc(C(F)(F)F)cn3)ccc2n1)N1CC[C@H](O)[C@H](O)C1` (relative stereo) [Example 350, [cis-3,4-dihydroxypiperidin-1-yl](6-{[5-(trifluoromethyl)pyridin-2-yl]oxy}quinolin-2-yl)methanone]: the pIC50 is < 4.70. Still for that read-out and setting: next, `CS(=O)(=O)[C@@H]1CN(C(=O)c2ccc3cc(Oc4ccc(C(F)(F)F)cn4)ccc3n2)C[C@H]1O` (relative stereo) [Example 351, [trans-3-hydroxy-4-(methylsulfonyl)pyrrolidin-1-yl](6-{[5-(trifluoromethyl)pyridin-2-yl]oxy}quinolin-2-yl)methanone]: 5.44. Still for that read-out and setting: next, `COCO[C@H]1CN(C(=O)c2ccc3cc(Oc4ccc(C(F)(F)F)cn4)ccc3n2)C[C@H]1O` (relative stereo) [Example 368, [cis-3-hydroxy-4-(methoxymethoxy)pyrrolidin-1-yl](6-{[5-(trifluoromethyl)pyridin-2-yl]oxy}quinolin-2-yl)methanone]: 5.90; `O=C(NCC(O)C(F)(F)F)c1ccc2cc(Oc3ccc(C(F)(F)F)cn3)ccc2n1` (stereo not shown) [Example 75, N-(3,3,3-trifluoro-2-hydroxypropyl)-6-{[5-(trifluoromethyl)pyridin-2-yl]oxy}quinoline-2-carboxamide]: 6.03. The same measure, in the same setting: the same measure for `O=C(c1ccc2cc(Oc3ccccn3)ccc2n1)N1CCOCC1` [Example 76, morpholin-4-yl[6-(pyridin-2-yloxy)quinolin-2-yl]methanone]: < 4.70; for `CN1CCN(C(=O)c2ccc3cc(Oc4ccccn4)ccc3n2)CC1` [Example 77, (4-methylpiperazin-1-yl)[6-(pyridin-2-yloxy)quinolin-2-yl]methanone]: < 4.70; for `CN1CCN(C(=O)c2ccc3cc(Oc4ccc(C#N)cc4)ccc3n2)CC1` [Example 81, 4-({2[(4-methylpiperazin-1-yl)carbonyl]quinolin-6-yl}oxy)benzonitrile]: 5.73. As for `N#Cc1ccc(Oc2ccc3nc(C(=O)N4CCOCC4)ccc3c2)cc1` [Example 83, 4-{[2-(morpholin-4-ylcarbonyl)quinolin-6-yl]oxy}benzonitrile], the negative-log IC50 (pIC50) is < 4.70. The same measure, in the same setting: the same measure for `N#Cc1ccc(Oc2ccc3nc(C(=O)NCCCN4CCOCC4)ccc3c2)cc1` [Example 87, 6-(4-cyanophenoxy)-N-[3-(morpholin-4-yl)propyl]quinoline-2-carboxamide]: 5.91; for `N#Cc1ccc(Oc2ccc3nc(C(=O)Nc4nccs4)ccc3c2)cc1` [Example 88, 6-(4-cyanophenoxy)-N-(1,3-thiazol-2-yl)quinoline-2-carboxamide]: < 4.70; for `N#Cc1ccc(Oc2ccc3nc(C(=O)NCc4cccnc4)ccc3c2)cc1` [Example 89, 6-(4-cyanophenoxy)-N-(pyridin-3-ylmethyl)quinoline-2-carboxamide]: 5.82. `N#Cc1ccc(Oc2ccc3nc(C(=O)N[C@H]4CCOC4=O)ccc3c2)cc1` [Example 90, 6-(4-cyanophenoxy)-N-[(3S)-2-oxotetrahydrofuran-3-yl]quinoline-2-carboxamide]: the pIC50 is 6.43. `CC(C)[C@H](CO)NC(=O)c1ccc2cc(Oc3ccc(C#N)cc3)ccc2n1` [Example 91, 6-(4-cyanophenoxy)-N-[(2R)-1-hydroxy-3-methylbutan-2-yl]quinoline-2-carboxamide]: the pIC50 is 5.49.

As to `N#Cc1ccc(Oc2ccc3nc(C(=O)NCc4cccs4)ccc3c2)cc1` [Example 92, 6-(4-cyanophenoxy)-N-(2-thienylmethyl)quinoline-2-carboxamide], the pIC50 is 5.01. For the compound `N#Cc1ccc(Oc2ccc3nc(C(=O)NCCc4cccs4)ccc3c2)cc1` [Example 93, 6-(4-cyanophenoxy)-N-[2-(2-thienyl)ethyl]quinoline-2-carboxamide], the pIC50 was 5.81. On the same count and under the same terms, the same measure for `N#Cc1ccc(Oc2ccc3nc(C(=O)NCc4ccco4)ccc3c2)cc1` [Example 94, 6-(4-cyanophenoxy)-N-(2-furylmethyl)quinoline-2-carboxamide]: 5.28; for `CC(C)C(CO)NC(=O)c1ccc2cc(Oc3ccc(C#N)cc3)ccc2n1` (stereo not shown) [Example 95, 6-(4-cyanophenoxy)-N-(1-hydroxy-3-methylbutan-2-yl)quinoline-2-carboxamide]: 5.31. On the same count and under the same terms, next, `N#Cc1ccc(Oc2ccc3nc(C(=O)NCCN4CCCC4)ccc3c2)cc1` [Example 96, 6-(4-cyanophenoxy)-N-[2-(pyrrolidin-1-yl)ethyl]quinoline-2-carboxamide]: 6.48.

Staying with this test, now noted: read-out: FRET-Membrane Potential Nav1.7 IC50.
Consider `Cc1noc(C2CCCN(C(=O)c3ccc4cc(Oc5ccccn5)ccc4n3)C2)n1` (stereo not shown) [Example 78, [3-(3-methyl-1,2,4-oxadiazol-5-yl)piperidin-1-yl][6-(pyridin-2-yloxy)quinolin-2-yl]methanone], for which the pIC50 is < 4.70. Regarding `O=C(NCCN1CCCCC1)c1ccc2cc(Oc3ccccn3)ccc2n1` [Example 79, N-[2-(piperidin-1-yl)ethyl]-6-(pyridin-2-yloxy)quinoline-2-carboxamide], the pIC50 is < 4.70. On the same count and under the same terms, next, `O=C(Nc1ncns1)c1ccc2cc(Oc3ccccn3)ccc2n1` [Example 80, 6-(pyridin-2-yloxy)-N-(1,2,4-thiadiazol-5-yl)quinoline-2-carboxamide]: < 4.70. With `N#Cc1ccc(Oc2ccc3nc(C(=O)NCCN4CCCCC4)ccc3c2)cc1` [Example 82, 6-(4-cyanophenoxy)-N-[2-(piperidin-1-yl)ethyl]quinoline-2-carboxamide], the pIC50 is 6.65. Same read-out and setting: the same measure for `N#Cc1ccc(Oc2ccc3nc(C(=O)Nc4ccc5cn[nH]c5c4)ccc3c2)cc1` [Example 84, 6-(4-cyanophenoxy)-N-(1H-indazol-6-yl)quinoline-2-carboxamide]: < 4.70; for `CN(C)CCCNC(=O)c1ccc2cc(Oc3ccc(C#N)cc3)ccc2n1` [Example 85, 6-(4-cyanophenoxy)-N-[3-(dimethylamino)propyl]quinoline-2-carboxamide]: 6.62; for `N#Cc1ccc(Oc2ccc3nc(C(=O)NCCN4CCOCC4)ccc3c2)cc1` [Example 86, 6-(4-cyanophenoxy)-N-[2-(morpholin-4-yl)ethyl]quinoline-2-carboxamide]: 5.76.
